Reference: ChEMBL document CHEMBL1201862, “PubChem BioAssay data set” (2004)
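Dose response: 5 concentrations. Exposure: 48 h. Format: 96-well plates. Endpoint: linear interpolation; highest concentration if not reached. Here, GI50 denotes the concentration required for 50% inhibition of growth.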 The source made the active and inactive calls. Cut-off read from the data, not from the text of the source: active = GI50 up to about 1.1 µM and inactive = higher.

Columns and labels:
Test in all cases: DTP human tumour cell line panel, 48 h
MDA-MB-231 = system: MDA-MB-231
COLO 205 = system: COLO 205
OVCAR-8 = system: OVCAR-8
NCI-H23 = system: NCI-H23
SF-539 = system: SF-539
IGROV-1 = system: IGROV-1
SW-620 = system: SW-620
MOLT-4 = system: MOLT-4
NCI-H460 = system: NCI-H460
MCF7 = system: MCF7
T47D = system: T47D
TK-10 = system: TK-10
Malme-3M = system: Malme-3M
HCC 2998 = system: HCC 2998
LOX IMVI = system: LOX IMVI
DU-145 = system: DU-145
786-0 = system: 786-0
ACHN = system: ACHN
NCI-H226 = system: NCI-H226
NCI/ADR-RES = system: NCI/ADR-RES
SNB-75 = system: SNB-75
SF-295 = system: SF-295
RXF 393 = system: RXF 393
HT-29 = system: HT-29
KM12 = system: KM12
OVCAR-4 = system: OVCAR-4
UACC-257 = system: UACC-257
HOP-62 = system: HOP-62
HOP-92 = system: HOP-92
A549 = system: A549
SR = system: SR
M14 = system: M14
UACC-62 = system: UACC-62
SK-MEL-28 = system: SK-MEL-28
UO-31 = system: UO-31
HCT-116 = system: HCT-116
EKVX = system: EKVX
RPMI-8226 = system: RPMI-8226
SF-268 = system: SF-268
A498 = system: A498
SNB-19 = system: SNB-19
SK-OV-3 = system: SK-OV-3
CCRF-CEM = system: CCRF-CEM
OVCAR-5 = system: OVCAR-5
SN12C = system: SN12C
SK-MEL-5 = system: SK-MEL-5
Hs-578T = system: Hs-578T
U-251 = system: U-251
MDA-MB-435 = system: MDA-MB-435
HL-60 = system: HL-60
HCT-15 = system: HCT-15
K562 = system: K562
MDA-N = system: MDA-N

Q: `CN1c2ccccc2C(=O)NC12CCN(Cc1ccccc1)CC2` was tested. Which GI50 (MDA-MB-231) did it give?
A: 96.6 µM (inactive)

Q: What about the GI50 (COLO 205) of the same compound?
A: 35.4 µM (inactive)

Q: What about the GI50 (OVCAR-8) of the same compound?
A: 69.2 µM (inactive)

Q: What about the GI50 (NCI-H23) of the same compound?
A: > 100 µM (inactive)

Q: What about the GI50 (SF-539) of the same compound?
A: 50.7 µM (inactive)

Q: And the GI50 (IGROV-1)?
A: 69.2 µM (inactive)

Q: What about the GI50 (SW-620) of the same compound?
A: 55.3 µM (inactive)

Q: And the GI50 (MOLT-4)?
A: 38.9 µM (inactive)

Q: What about the GI50 (NCI-H460) of the same compound?
A: 39.4 µM (inactive)

Q: What about the GI50 (MCF7) of the same compound?
A: 46 µM (inactive)

Q: What about the GI50 (T47D) of the same compound?
A: 70.3 µM (inactive)

Q: And the GI50 (TK-10)?
A: 41 µM (inactive)

Q: What about the GI50 (Malme-3M) of the same compound?
A: 87.1 µM (inactive)

Q: What about the GI50 (HCC 2998) of the same compound?
A: 83.6 µM (inactive)

Q: What about the GI50 (LOX IMVI) of the same compound?
A: 46 µM (inactive)

Q: And the GI50 (DU-145)?
A: 71.6 µM (inactive)

Q: And the GI50 (786-0)?
A: 62.4 µM (inactive)

Q: What about the GI50 (ACHN) of the same compound?
A: 31.2 µM (inactive)

Q: What about the GI50 (NCI-H226) of the same compound?
A: 27.5 µM (inactive)

Q: What about the GI50 (NCI/ADR-RES) of the same compound?
A: > 100 µM (inactive)

Q: And the GI50 (SNB-75)?
A: 75 µM (inactive)

Q: What about the GI50 (SF-295) of the same compound?
A: 32 µM (inactive)

Q: And the GI50 (RXF 393)?
A: > 100 µM (inactive)

Q: And the GI50 (HT-29)?
A: 27.6 µM (inactive)

Q: What about the GI50 (KM12) of the same compound?
A: 46 µM (inactive)

Q: What about the GI50 (OVCAR-4) of the same compound?
A: 80.2 µM (inactive)

Q: And the GI50 (UACC-257)?
A: 59.6 µM (inactive)

Q: What about the GI50 (HOP-62) of the same compound?
A: 54.7 µM (inactive)

Q: What about the GI50 (HOP-92) of the same compound?
A: 18.3 µM (inactive)

Q: And the GI50 (A549)?
A: 56.9 µM (inactive)

Q: And the GI50 (SR)?
A: 33.3 µM (inactive)

Q: What about the GI50 (M14) of the same compound?
A: 33.4 µM (inactive)

Q: What about the GI50 (UACC-62) of the same compound?
A: 86.5 µM (inactive)

Q: What about the GI50 (SK-MEL-28) of the same compound?
A: 73.8 µM (inactive)

Q: And the GI50 (UO-31)?
A: 34.6 µM (inactive)

Q: What about the GI50 (HCT-116) of the same compound?
A: 44.9 µM (inactive)

Q: What about the GI50 (EKVX) of the same compound?
A: 42.2 µM (inactive)

Q: And the GI50 (RPMI-8226)?
A: 47.2 µM (inactive)

Q: What about the GI50 (SF-268) of the same compound?
A: 89.7 µM (inactive)

Q: And the GI50 (A498)?
A: 57.1 µM (inactive)

Q: What about the GI50 (SNB-19) of the same compound?
A: 27.5 µM (inactive)

Q: What about the GI50 (SK-OV-3) of the same compound?
A: 84.9 µM (inactive)

Q: What about the GI50 (CCRF-CEM) of the same compound?
A: 35.6 µM (inactive)

Q: What about the GI50 (OVCAR-5) of the same compound?
A: > 100 µM (inactive)

Q: And the GI50 (SN12C)?
A: 49.4 µM (inactive)

Q: What about the GI50 (SK-MEL-5) of the same compound?
A: 54.8 µM (inactive)

Q: What about the GI50 (Hs-578T) of the same compound?
A: 36.7 µM (inactive)

Q: What about the GI50 (U-251) of the same compound?
A: 40.1 µM (inactive)

Q: And the GI50 (MDA-MB-435)?
A: 63.1 µM (inactive)

Q: What about the GI50 (HL-60) of the same compound?
A: 30.5 µM (inactive)

Q: And the GI50 (HCT-15)?
A: 42.5 µM

Q: What does the source list for `NNc1c(C(N)=O)c2c(N)ncnc2n1C1OC(CO)C(O)C1O` (stereo unspecified)?
A: GI50 (MDA-MB-231): 0.0255 µM (active); GI50 (COLO 205): 0.0129 µM (active); GI50 (K562): 0.0451 µM (active); GI50 (SW-620): < 0.01 µM (active); GI50 (MCF7): 0.0171 µM (active); GI50 (T47D): < 0.01 µM (active); GI50 (LOX IMVI): 0.0112 µM (active); GI50 (DU-145): < 0.01 µM (active); GI50 (ACHN): 0.0107 µM (active); GI50 (NCI-H226): 0.0536 µM (active); GI50 (SF-295): 0.233 µM (active); GI50 (HT-29): 0.0198 µM (active); GI50 (HOP-62): 0.0196 µM (active); GI50 (SR): < 0.01 µM (active); GI50 (HCT-116): 0.0119 µM (active); GI50 (EKVX): 0.078 µM (active); GI50 (MDA-N): 26.1 nM (active); GI50 (HCT-15): 0.0175 µM

Q: `COc1cc(CNC(=S)CCCCCCCCCCC(C)C)ccc1O` was tested. Which GI50 (MDA-MB-231) did it give?
A: > 100 µM (inactive)

Q: And the GI50 (COLO 205)?
A: 70.6 µM (inactive)

Q: And the GI50 (OVCAR-8)?
A: 49 µM (inactive)

Q: And the GI50 (K562)?
A: 35.2 µM (inactive)

Q: And the GI50 (NCI-H23)?
A: 28.7 µM (inactive)

Q: What about the GI50 (SF-539) of the same compound?
A: > 100 µM (inactive)

Q: What about the GI50 (IGROV-1) of the same compound?
A: 44.2 µM (inactive)

Q: What about the GI50 (SW-620) of the same compound?
A: > 100 µM (inactive)

Q: What about the GI50 (MOLT-4) of the same compound?
A: 5.92 µM (inactive)

Q: And the GI50 (NCI-H460)?
A: 42.9 µM (inactive)

Q: What about the GI50 (MCF7) of the same compound?
A: 41.5 µM (inactive)

Q: What about the GI50 (T47D) of the same compound?
A: 27 µM (inactive)

Q: What about the GI50 (TK-10) of the same compound?
A: > 100 µM (inactive)

Q: And the GI50 (Malme-3M)?
A: > 100 µM (inactive)

Q: And the GI50 (HCC 2998)?
A: 63.1 µM (inactive)

Q: What about the GI50 (LOX IMVI) of the same compound?
A: 41.9 µM (inactive)

Q: And the GI50 (DU-145)?
A: > 100 µM (inactive)

Q: What about the GI50 (786-0) of the same compound?
A: 63.5 µM (inactive)

Q: And the GI50 (ACHN)?
A: 58.7 µM (inactive)

Q: What about the GI50 (NCI-H226) of the same compound?
A: 18.4 µM (inactive)

Q: What about the GI50 (NCI/ADR-RES) of the same compound?
A: 46.3 µM (inactive)

Q: What about the GI50 (SNB-75) of the same compound?
A: > 100 µM (inactive)

Q: What about the GI50 (SF-295) of the same compound?
A: 43.7 µM (inactive)

Q: And the GI50 (RXF 393)?
A: > 100 µM (inactive)

Q: What about the GI50 (HT-29) of the same compound?
A: 36.7 µM (inactive)

Q: And the GI50 (KM12)?
A: 28.4 µM (inactive)

Q: What about the GI50 (OVCAR-4) of the same compound?
A: 53.6 µM (inactive)

Q: What about the GI50 (UACC-257) of the same compound?
A: 38.5 µM (inactive)

Q: And the GI50 (HOP-62)?
A: 58.6 µM (inactive)

Q: What about the GI50 (HOP-92) of the same compound?
A: 24.2 µM (inactive)

Q: What about the GI50 (A549) of the same compound?
A: 53 µM (inactive)

Q: And the GI50 (SR)?
A: 3.01 µM (inactive)

Q: What about the GI50 (M14) of the same compound?
A: 48.4 µM (inactive)

Q: And the GI50 (UACC-62)?
A: 34.4 µM (inactive)

Q: What about the GI50 (SK-MEL-28) of the same compound?
A: > 100 µM (inactive)

Q: And the GI50 (UO-31)?
A: 11.9 µM (inactive)

Q: What about the GI50 (HCT-116) of the same compound?
A: 31.6 µM (inactive)

Q: What about the GI50 (EKVX) of the same compound?
A: 62.8 µM (inactive)

Q: What about the GI50 (RPMI-8226) of the same compound?
A: 37.2 µM (inactive)

Q: What about the GI50 (SF-268) of the same compound?
A: > 100 µM (inactive)

Q: And the GI50 (A498)?
A: 31.6 µM (inactive)

Q: What about the GI50 (SNB-19) of the same compound?
A: 72.6 µM (inactive)

Q: And the GI50 (SK-OV-3)?
A: > 100 µM (inactive)

Q: What about the GI50 (CCRF-CEM) of the same compound?
A: 1.19 µM (inactive)

Q: What about the GI50 (OVCAR-5) of the same compound?
A: > 100 µM (inactive)

Q: What about the GI50 (SN12C) of the same compound?
A: 92.3 µM (inactive)

Q: And the GI50 (SK-MEL-5)?
A: 36.2 µM (inactive)

Q: What about the GI50 (Hs-578T) of the same compound?
A: 22.2 µM (inactive)

Q: And the GI50 (U-251)?
A: 72.1 µM (inactive)

Q: What about the GI50 (MDA-MB-435) of the same compound?
A: 41.9 µM (inactive)

Q: What about the GI50 (HL-60) of the same compound?
A: 13.3 µM (inactive)

Q: What about the GI50 (HCT-15) of the same compound?
A: 63 µM
